From patent US5474992A, “Method of treatment with pharmaceutical composition for renal disorder and a dialysis solution for extracorporeal hemodialysis” (Senju Pharmaceutical Co., Ltd., priority 1993, dated 1995)

Legend:
[1] = system: adriamycin nephrosis in rats; assay: Effect on adriamycin nephrosis in rats; format: in vivo, male SD rats; conditions: 1 mg/kg, i.p. once daily, day 80, mean ± standard error, n=5 to 6
Procedure: The effect of the compound of this Invention on adriamycin nephrosis in rats was evaluated.
Method: This study was conducted in male SD rats (body weight: about 180 g) purchased from Japan SLC. The rats were intravenously dosed with 7.5 mg/kg of adriamycin to induce renal impairment.
The test substance EPC-K was administered intraperitoneally once daily and the rat was sacrificed on day 80 for determination of biochemical parameters. Physiological saline was used as control.

[2] = system: neutrophil-derived active oxygens formed due to the dialysis membrane; assay: Chemiluminescence assay of scavenging effect on neutrophil-derived active oxygens formed due to the dialysis membrane; format: cell-based, SD rat; conditions: PMMA membrane, MCLA; for Chemiluminescence photon count: mean ± standard deviation, n=5, blank test 42392 ± 12789
Procedure: The scavenging effect of the compound of this invention on the neutrophil-derived active oxygens formed due to the dialysis membrane was evaluated by the chemiluminescence assay.
An SD rat was intraperitoneally infused with 120 ml/kg of 1% casein-containing Krebs-Ringer bicarbonate buffer (Ca^2+ -free) and kept as it was for 15 to 18 hours. Then, ice-cooled phosphate buffered saline (Ca^2+ /Mg^2+ -free, briefly PBS) was infused into the peritoneal cavity and after massaging the abdomen, laparotomy was performed to collect the peritoneal fluid. This fluid was centrifuged (4° C.) at 150G for 5 minutes and the sediment was subjected to hemolysis treatment, washed with 2 portions of PBS and suspended in Hanks buffered saline (Ca^2+ /Mg^2+ -free; abbreviation: HBS) at a concentration of 5×10^6 cells/ml.
The hollow fiber of polymethyl methacrylate (PMMA) was taken out from the Filtrizer cartridge, rinsed and dried. The dried hollow fiber was milled in a mortar (to a particle diameter of about 20 to 100 μm) and suspended in HBS at a concentration of 100 mg/ml.
MCLA (2-methyl-6-[p-methoxyphenyl]-3,7,-dihydroimidazolo[1,2-a]pyrazin-3-one)(Cypridina luciferin analog; manufactured by Tokyo Kasei Kogyo Co., Ltd.) was dissolved in HBS at a concentration of 5 μM.
EPC-K was dissolved in HBS at final concentrations of 1 μM to 10 μM. To 100 μl of each solution were added 300 μl of the neutrophil suspension and 100 μl of the MCLA solution and the mixture was incubated at 37° for 10 minutes. Then, 20 μl of the PMMA suspension was added and the resulting MCLA-dependent chemiluminescence was quantitated in 5 replicates. From the photon count at maximal emission was subtracted the minimal count immediately following addition of the PMMA suspension to arrive at the chemiluminescence photon count (CPM). The count obtained with HBS (blank test) was compared with the count obtained with the drug and the percent inhibition (%) was calculated by means of the following equation. [formula]

[3] = Acute toxicity (LD50) in rats; conditions: rat, in vivo
Procedure: The compound of this invention for use as the active ingredient of said pharmaceutical composition or dialysis solution is extremely low in toxicity and highly safe and, therefore, can be used advantageously for purposes of this invention [e.g. the LD50 values of L-ascorbyl DL-α-tocopheryl phosphate potassium (hereinafter referred to briefly as EPC-K)≥5 g/kg p.o. (rats) and≥100 mg/kg i.v. (rats)].

[4] = system: adenine nephrosis in rats; assay: Effect on adenine nephrosis in rats; format: in vivo, male Wistar rats; conditions: i.p. once a day, mean ± standard error, n=8 to 9; for Creatinine: control (saline) 1.95 ± 0.64; for BUN: control (saline) 98.4 ± 34.5
Procedure: The effect of the compound of this invention on adenine nephrosis in rats was evaluated.
Method: Male Wistar rats, aged 7 weeks, were purchased from SLC and used.
The rats were put on a 0.5% adenine-containing diet for 30 days to induce adenine nephrosis.
The test substance EPC-K was intraperitoneally administered once a day. Physiological saline was used as control.

salt-sensitive rats = assay: Effect on salt-sensitive rats (NaCl-induced renal impairment); format: in vivo, male Dahl S rats; conditions: mean ± standard error, n=4 to 6, * p < 0.0001, control 30.0 ± 2.9
Procedure: The effect of the compound of this invention on salt-sensitive rats was investigated.
Method: Male Dahl S rats (salt-sensitive rats) were purchased from Seiwa Experimental Animal Institute and loaded with 8% aqueous solution of sodium chloride to induce renal impairment.
The test substance EPC-K was administered once daily for 4 weeks. As a control, distilled water was orally administered.

[5] = system: rats with vitamin E deficiency; assay: Effect on renal impairment in rats with vitamin E deficiency (DL-buthionine sulfoximine induced); format: in vivo, male Wistar rats; conditions: 141 mg/5 ml/kg p.o. once daily for one week, vitamin E-deficient rats + BSO, mean ± standard error, n=5
Procedure: The effect of the compound of this invention, administered orally, on renal impairment in rats with vitamin E deficiency was evaluated.
Test substance: L-ascorbyl DL-α-tocopheryl phosphate potassium (abbreviation: EPC-K).
Method: Male Wistar rats were purchased from Japan Clea, Inc. at the age of 4 weeks and put on a vitamin E-deficient diet for 10 weeks before the experiment.
The rat model of renal impairment was constructed by administering 1 mmol/kg of DL-buthionine sulfoximine (abbreviation: BSO), a glutathione (abbreviation: GSH) synthesis inhibitor, intraperitoneally once a day for 3 consecutive days.
Five hours after the last administration of DL-buthionine sulfoximine (BSO), the blood was drawn from the lower abdominal aorta under pentobarbital anesthesia and the serum levels of creatinine, urea nitrogen (abbreviation: BUN) and lipid peroxide (abbreviation: LPO), which are indicators of renal function, were determined by Jaffe's method, urease-indophenol method, and Yagi's method, respectively.
The test substance EPC-K was administered orally in a dose of 141 mg/5 ml/kg once daily for one week until the blood sampling day. As a control, distilled water was used.

For `Cc1c(C)c2c(c(C)c1OP(=O)(O)OC1=C(O)[C@@H]([C@@H](O)CO)OC1=O)CCC(C)(CCCC(C)CCCC(C)CCCC(C)C)O2` (mixture of isomers) [EPC-K, L-ascorbyl DL-α-tocopheryl phosphate potassium], the BUN ([1]; * p < 0.0001, control (saline) 23.5 ± 1.7) was 18.2 ± 1.2 mg/dL, the Creatinine ([1]; control (saline) 0.50 ± 0.28) was 0.30 ± 0 mg/dL and the LPO ([1]; control (saline) 2.5 ± 1.8) was 1.4 ± 0.8 nmol/mL. It also gave a Urinary protein ([1]; control (saline) 696 ± 710) of 119 ± 54 mg/day, a Chemiluminescence photon count ([2]; 1 μM) of 32230 ± 6949 CPM and a Chemiluminescence photon count ([2]; 3 μM) of 26800 ± 3057 CPM. It also gave a Chemiluminescence photon count ([2]; 10 μM) of 14518 ± 3648 CPM, an inhibition at 1 µM ([2]; Rattus norvegicus, 1 μM, versus blank test (HBS), read-out: Percent inhibition) of 24% and an inhibition at 3 µM ([2]; Rattus norvegicus, 3 μM, versus blank test (HBS), read-out: Percent inhibition) of 36.8%. For the same compound, the inhibition at 10 µM ([2]; Rattus norvegicus, 10 μM, versus blank test (HBS), read-out: Percent inhibition) was 65.8%, the LD50 ([3]; iv, i.v. (rats)) was ≥ 100 mg/kg and the LD50 ([3]; po, p.o. (rats)) was ≥ 5000 mg/kg. For the same compound, the Creatinine ([4]; 5 mg/kg, * p < 0.05) was 1.14 ± 0.32 mg/dL, the BUN ([4]; 5 mg/kg, * p < 0.05) was 61.5 ± 13.2 mg/dL and the Creatinine ([4]; 10 mg/kg, ** p < 0.01) was 0.73 ± 0.15 mg/dL. For the same compound, the BUN ([4]; 10 mg/kg, ** p < 0.01) was 40.2 ± 5.2 mg/dL, the BUN (salt-sensitive rats; 5 mg/kg, i.p. once daily for 4 weeks) was 15.6 ± 2.7 mg/dL and the BUN (salt-sensitive rats; 141 mg/kg, p.o. once daily for 4 weeks) was 18.5 ± 2.1 mg/dL. The “Creatinine (serum)” value ([5]; * p < 0.05, distilled water 5.8 ± 0.2) was 2.0 ± 1.3 mg/dL, the “BUN (serum)” value ([5]; ** p < 0.01, distilled water 208.5 ± 17.7) was 62.5 ± 37.1 mg/dL and the “LPO (serum lipid peroxide)” value ([5]; distilled water 5.4 ± 0.9) was 3.8 ± 0.1 nmol/mL.
